# Patent US20160222122A1, “INTEGRIN-MODULATING THERAPIES FOR TREATING FIBROTIC DISEASE” (The Johns Hopkins University, priority 2013, published 2016)
# “Also recorded” adds a separate entry of the source.
# Key:
# [1] = tested on: Fbn1D1545E/+ and Fbn1W1572C/+ mice (SSS mouse models); assay: In vivo drug treatment of SSS mouse models: clinical stiffness score and stretched skin area/total surface area ratio; details: RDEA119 25 mg/kg twice daily by oral gavage, 8 weeks from 1 month of age
# Experimental: (§1) All antibodies used to treat mice or cells were azide-free. Male mice were treated with β1 integrin activating antibody (β1aAb, Rat Clone 9EG7, BD Biosciences, special-ordered >98% pure and azide-free) or an isotype-matched control (Rat IgG2a, κ, special-ordered >98% pure and azide-free, BD Biosciences) by intraperitoneal injection at 2 mg/kg every five days for twelve weeks, beginning at one month of age. Complete blood cell counts were performed to exclude pancytopenia in β1aAb-treated animals (FIG. 20A). For the TGFβ-Neutralizing trial, three-month-old male mice were treated with pan-specific TGFβ-Neutralizing antibody (Mouse Clone 1D11, catalog #MAB1835, R&D) or an isotype control (Mouse IgG1, Clone 11711, cat#MAB002, R&D) by intraperitoneal injection at 10 mg/kg every other day for twelve weeks.
# RDEA119 was generously provided by Craig J. Thomas, Samarjit Patnaik, and Juan J. Marugan (National Institutes of Health Chemical Genomics Center, Rockville, Md., USA). RDEA119 was reconstituted in 10% 2-hydroxypropyl-betacyclodextrin (Sigma-Aldrich) dissolved in PBS, and administered twice daily by oral gavage at a dose of 25 mg/kg. […]
# A clinical stiffness score was assigned by five blinded observers. […] Mice were assessed in random order. […] Early in the course of studies, the same mice were assessed by the same observer on a different day. […]
# [2] = tested on: Fbn1D1545E/+ and Fbn1W1572C/+ mice (SSS mouse models); assay: Histology (Masson's trichrome) and immunofluorescence of back skin of treated SSS mice; format: in vivo; details: RDEA119 25 mg/kg twice daily oral gavage, 8 weeks
# Experimental: as §1
# RDEA119 was generously provided by Craig J. Thomas, Samarjit Patnaik, and Juan J. Marugan (National Institutes of Health Chemical Genomics Center, Rockville, Md., USA). […]
# For tissue analysis, animals were euthanized through inhalational halothane (Sigma) or anesthetized with isofluorane. […] Dermal and subcutaneous fat thickness was measured using high-powered fields as described previously. […] Active αvβ3 was detected using the WOW-1 antibody (a gift from Dr. Sanford Shattil) and an anti-mouse Alexa Fluor-594 F(ab′)2 fragment secondary (Invitrogen cat#A11020). […]
# [3] = target: T1, integrin αvβ3 in its active conformation (Homo sapiens, UniProt P05106+P06756); assay: Specificity of WOW-1 antibody for active integrin αvβ3 in control fibroblasts by flow cytometry; format: cell-based; details: 10 mM EDTA, 2 mM MnCl2
# T1 construct: endogenous in cells; host or cells: control fibroblasts (read as primary human dermal fibroblasts from healthy controls)
# T1 sequence (P06756 31-889 limits assumed): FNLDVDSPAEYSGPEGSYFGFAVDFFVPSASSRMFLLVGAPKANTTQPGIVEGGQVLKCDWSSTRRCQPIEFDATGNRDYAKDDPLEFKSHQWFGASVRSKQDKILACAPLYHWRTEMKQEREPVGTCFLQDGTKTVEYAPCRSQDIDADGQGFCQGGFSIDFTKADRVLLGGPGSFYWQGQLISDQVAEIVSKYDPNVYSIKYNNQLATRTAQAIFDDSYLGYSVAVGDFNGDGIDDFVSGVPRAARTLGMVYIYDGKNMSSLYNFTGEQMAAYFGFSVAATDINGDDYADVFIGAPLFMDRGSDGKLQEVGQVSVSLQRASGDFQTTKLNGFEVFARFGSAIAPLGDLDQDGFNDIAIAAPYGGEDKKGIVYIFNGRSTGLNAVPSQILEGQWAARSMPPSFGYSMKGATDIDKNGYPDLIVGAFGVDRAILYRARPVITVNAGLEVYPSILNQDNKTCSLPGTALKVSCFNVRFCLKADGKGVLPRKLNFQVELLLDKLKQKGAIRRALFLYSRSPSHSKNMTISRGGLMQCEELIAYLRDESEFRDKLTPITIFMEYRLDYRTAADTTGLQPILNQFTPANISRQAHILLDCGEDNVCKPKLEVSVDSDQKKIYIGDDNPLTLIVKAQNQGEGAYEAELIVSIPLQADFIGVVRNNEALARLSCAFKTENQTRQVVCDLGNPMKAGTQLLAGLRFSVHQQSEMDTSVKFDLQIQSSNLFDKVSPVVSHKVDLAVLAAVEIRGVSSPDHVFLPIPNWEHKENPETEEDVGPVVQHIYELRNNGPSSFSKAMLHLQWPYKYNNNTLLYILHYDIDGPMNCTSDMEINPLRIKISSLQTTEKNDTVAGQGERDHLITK
# T1 sequence (P06756 891-1048 partner limits assumed): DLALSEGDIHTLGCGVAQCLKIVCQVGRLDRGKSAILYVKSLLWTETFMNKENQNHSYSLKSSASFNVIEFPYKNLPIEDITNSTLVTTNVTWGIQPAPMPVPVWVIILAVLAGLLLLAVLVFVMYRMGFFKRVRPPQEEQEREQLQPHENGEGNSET
# T1 sequence (P05106 27-788): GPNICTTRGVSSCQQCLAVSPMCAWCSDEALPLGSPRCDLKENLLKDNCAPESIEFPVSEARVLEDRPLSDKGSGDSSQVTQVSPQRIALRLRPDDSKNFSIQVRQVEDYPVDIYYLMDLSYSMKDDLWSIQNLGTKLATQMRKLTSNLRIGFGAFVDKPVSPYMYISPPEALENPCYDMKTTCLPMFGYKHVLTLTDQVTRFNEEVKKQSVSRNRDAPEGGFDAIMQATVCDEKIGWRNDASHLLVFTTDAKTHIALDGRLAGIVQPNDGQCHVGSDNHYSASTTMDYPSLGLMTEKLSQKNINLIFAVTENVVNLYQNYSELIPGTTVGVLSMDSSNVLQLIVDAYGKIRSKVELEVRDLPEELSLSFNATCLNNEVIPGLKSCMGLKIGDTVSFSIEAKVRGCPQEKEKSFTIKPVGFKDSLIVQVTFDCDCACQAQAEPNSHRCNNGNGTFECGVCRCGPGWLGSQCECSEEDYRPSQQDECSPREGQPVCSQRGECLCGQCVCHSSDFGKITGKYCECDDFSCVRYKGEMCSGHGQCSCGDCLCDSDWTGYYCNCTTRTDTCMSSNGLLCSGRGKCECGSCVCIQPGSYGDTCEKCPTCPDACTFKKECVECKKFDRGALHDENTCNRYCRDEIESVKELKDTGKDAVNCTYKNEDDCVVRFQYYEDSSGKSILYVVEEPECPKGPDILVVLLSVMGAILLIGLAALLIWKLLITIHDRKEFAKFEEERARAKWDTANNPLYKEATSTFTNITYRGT
# Experimental: For histograms, FlowJo software divides all events into 256 “bins,” which are numerical ranges for the parameter on the x-axis. The percent of maximum (yaxis) is the number of cells in each bin divided by the number of cells in the bin that contains the largest number of cells. Gating for live cells was based on staining with the LIVE/DEAD® Fixable Dead Cell Stain Kit (Invitrogen, cat#L34955). All staining was performed with fluorophore-conjugated primary and isotype control antibodies. All antibodies were either purchased as fluorochrome conjugates or conjugated via amine-based Alexa Fluor antibody labeling kits (cat#A-20181, A20187, A-20185, A-20186, Invitrogen). Mouse and human active αvβ3 was detected fluorophore-conjugated WOW-1 antibody (a gift from Dr. Sanford Shattil). 10 mM Ethylenediaminetetraacetic acid (EDTA) and 2 mM MnCl2 were used as negative and positive controls for αvβ3 activation in flow cytometry experiments (FIG. 20B). Integrin αvβ5, a subtype known to react with the WOW-1 antibody, was monitored in mouse and human cells with a specific antibody (cat#LS-C36943, Lifespan Biosciences).
# SSc fibroblasts [4] = assay: In vitro TGFβ1 stimulation of SSc dermal fibroblasts, Western blotting of pSMAD3 and pERK1/2; format: cell-based, human
# Experimental: (§2) All cells were counted at splitting and all treatments were performed at 70% confluency. Cells were serum starved 48 hours prior to stimulation with 2 ng/mL recombinant TGFβ1 (cat#240-B-010, R&D). When TGFβ1 or vehicle was added, cell culture dishes were immediately rocked on the same rocker three times at 5% CO2, 37° to control for mechanical MAPK activation. Before lysate harvest, cells were washed with pre-warmed (42°) 1×PBS (Gibco®). All antibody treatments of human fibroblasts were added during starvation 48 hours before TGFβ1 stimulation while inhibitors SD208 (1 μM) and UO126 (10 μM) (cat#s 616456 and 662005, EMD Millipore) were added 6 hours prior to stimulation. Antibodies used in vitro were mouse IgG1 (0.2 mg/mL, Clone P3.6.2.8.1, cat#16-4714-81, eBiosciences), IgG2a (0.2 mg/mL, Clone eBM2a, cat#16-4724, eBiosciences), αvβ3-blocking (30 μg/mL, Clone LM609, cat#MAB1976Z, Millipore), β1-activating (7 μg/mL, Clone TS2/16, cat#14-0299, eBiosciences), and β1-blocking (0.2 mg/mL, Clone P4C10, cat#MAB1987Z, Millipore) antibodies.
# Before lysate harvest, cells were washed with pre-warmed ([…]) 1×PBS (Gibco®). […] The relative intensities were measured using LiCor Odyssey software. […]
# SSc fibroblasts [5] = assay: qPCR of miR-29a and collagen mRNAs in cultured SSc fibroblasts; format: cell-based, human; details: inhibitors SD208 (1 μM), U0126 (10 μM)
# Experimental: Primary human dermal fibroblasts (HDFs) were derived from skin biopsies from 5 patients with active diffuse systemic sclerosis and 6 healthy controls. Biopsies were taken from the forearm and cultured as previously described. All experiments were performed in cell lines at low (<5) passage. Primary mouse embryonic fibroblasts (MEFs) were derived from E13.5 embryos as described previously. Murine plasmacytoid dendritic cells (pDCs) were isolated from the spleens of wild-type C57B16/J mice using the Plasmacytoid Dendritic Cell Isolation Kit II (cat#130-092-786, Miltenyi Biotec) and a midiMACS™ Separator (cat#130-042-302, Miltenyi Biotec) according to the manufacturer's instructions. The pDC-containing cell suspensions routinely had greater than 95% purity, as detected by flow cytometry.
# as §2
# Total RNA was isolated from cultured cells or tissue using Trizol (Invitrogen) according to the manufacturer's protocol. Quantitative PCR for miR-29a and 18S rRNA was performed using pre-designed Taqman primers and probes (ABI) according to manufacturer's instructions. Relative quantification for each transcript was obtained by normalizing against 18S transcript abundance according to the formula 2^−Ct/2^−Ct(18S).
WOW-1 immunoreactivity [3],Compound,expression of miR-29a (SSc fibroblasts [5]),expression of type IA2 and III collagen genes (SSc fibroblasts [5]),further results
,COc1cc(F)c(F)c(Nc2ccc(I)cc2F)c1NS(=O)(=O)C1(C[C@H](O)CO)CC1 [RDEA119],,,skin stiffness [1]: prevents skin stiffness; dermal collagen accumulation [2]: prevents; loss of subcutaneous fat [2]: prevents
reduced immunoreactivity,"O=C(O)CN(CCN(CC(=O)O)CC(=O)O)CC(=O)O [EDTA, Ethylenediaminetetraacetic acid]",,,
,Fc1ccc(Cl)cc1-c1nc(Nc2ccncc2)c2nccnc2n1 [SD208],"increased expression of miR-29a, this finding did not reach significance; also recorded: normalized",normalized,"ERK1/2 activation (pERK1/2) in response to TGFβ1 (SSc fibroblasts [4]; 2 ng/mL TGFβ1, 5 minutes, antibodies added 48 hours before, SD208 1 μM 6 hours prior): inhibited; also recorded: sensitive; Smad3 phosphorylation (pSMAD3) in response to TGFβ1 (SSc fibroblasts [4]; 2 ng/mL TGFβ1, SD208 1 μM 6 hours prior): sensitive"
increased immunoreactivity,[Cl][Mn][Cl] [MnCl2],,,
,N#CC(=C(/N)Sc1ccccc1N)/C(C#N)=C(\N)Sc1ccccc1N [U0126],increased miR-29a levels; also recorded: increases miR-29a expression,reduced collagen expression; also recorded: reduces type IA2 and III collagen expression,
